{"source": "patent US5827821A", "about": "“Conformationally stabilized cell adhesion peptides” (The Burnham Institute, priority 1992, dated 1998)", "key": {"[1]": {"test_system": "attachment of normal rat kidney cells to vitronectin", "assay": "Cell adhesion assay: inhibition of attachment of normal rat kidney cells to vitronectin", "type": "cell-based", "details": "vitronectin-coated wells, peptide 0 to 10.0 mM, FIG. 2", "method": "(§1) Fibronectin and vitronectin were purified from human plasma according to the methods of Ruoslahti et al., (1982) Meth. Enz. 82:803; and Hayman et al., (1983) PNAS 80:4003, respectively, both of which are incorporated herein by reference. The adhesion of normal rat kidney cells to fibronectin and vitronectin was assayed as described in Ruoslahti et al., Meth. Enz. supra. Briefly, 0.1 ml solution of fibronectin or vitronectin at a concentration of 12 μg/ml in 0.1M PBS was placed in each well of 96-well plastic microtiter plates and left for 2 hours at room temperature. The unattached protein was removed by washing three times with PBS.\n(§2) One day before the assay, a confluent culture of normal rat kidney cells was split 1:2 using standard tissue culture trypsin. The cells were washed three times with PBS, pH 7.2. […] Before the last centrifugation, a sample was taken and cell numbers and viability by trypan blue exclusion are determined. […]\n(§3) The unattached cells were removed simply by removing the medium and washing the wells. […] The cells were then fixed with 3% paraformaldehyde in PBS and stained with 1% toluidine blue, paraformaldehyde in PBS, and attached cells counted. Their number was determined using a cell counter that is capable of counting cells attached to a surface (Dynatech Laboratories, Alexandria, Va.). […]"}, "[2]": {"test_system": "attachment of normal rat kidney cells to fibronectin", "assay": "Cell adhesion assay: inhibition of attachment of normal rat kidney cells to fibronectin", "type": "cell-based", "details": "fibronectin-coated wells, peptide 0 to 10.0 mM, FIG. 2", "method": "as §1, §2, §3"}}, "note": "Where no end group is shown, it is not given here. [ ]: non-standard residue; d: D form. Pen = CC(C)(S)[C@H](N)C(=O)O"}
{"substance": "G[Pen]GRGDSPC (cysteine pairing not given here) [linear peptide]", "values": [{"measurement": "inhibition of attachment to vitronectin", "setting": "[1]", "result": "inhibited attachment of cells to both substrates at relatively similar concentrations"}, {"measurement": "inhibition of attachment to fibronectin", "setting": "[2]", "result": "inhibited attachment of cells to both substrates at relatively similar concentrations"}]}
